In the assay the target is AR / CBP ternary complex (Homo sapiens, UniProt P10275+Q92793). As to the kind of experiment: Ternary complex formation assay (sandwich ELISA, AR capture, CBP antibody detection) in VCaP cell lysates. The assay is classed as cell-based. The following applies: treated 1.5 hours, rabbit CBP or p300 antibody detection, average, read-out: Average Ternary Complex. As to the method: Black MaxiSorp plates: coat with 50 μL of mouse 1/50 diluted AR antibody (Monoclonal Antibody (AR 441 from Thermo Fisher); diluted in phosphate buffered saline (PBS). Spin the liquid to the bottom of the wells, if necessary. Incubate overnight at 4° C. Next day, wash 3 times with 200 μL of TBST. Block with 200 μL of blocking buffer (5% BSA in TBST) at room temperature for 2 hours (BSA: A4503 or A2153 from Sigma). Wash plates 3 times with TBST. Plates are ready for lysates Preparation of dimerizer treated lysates
Culture cells in 96 wells at 50K VCaP cells/well for at least 3 days. Plate in 5% Omega charcoal stripped FBS in total volume of 200 uL. Treat with bifunctional for 1.5 hours by adding 1 μL of 200× stock in DMSO. Aspirate media/compound. Add and pipet-to-mix 70 μL of 1× AlphaLisa Lysis Buffer to each well (Perkin Elmer, AlphaLISA SureFire Ultra, diluted in water). Pipet up and down when adding lysis buffer to disrupt cells. Let lysis proceed for 30 min at 4° C.
Incubate for 1 hour at room temperature. Flick out the lysates. Wash 3 times with TBST. Add 75 μL of rabbit CBP or p300 antibody to each well (diluted 1:5000 in blocking buffer (5% BSA in TBST). CBP antibody: (D6C5) Rabbit mAb #7389; p300 antibody: (D8Z4E) Rabbit mAb #86377. Incubate overnight at 4° C. Wash 3 times with 300 uL TBST, each time on shaker for 5-10 min. Prepare goat anti-rabbit antibody conjugated to HRP (1/100K dilution in blocking buffer) Invitrogen Catalog number: 32260. Add 75 μL of HRP-conjugated goat anti-rabbit antibody. Incubate at room temperature for 1 hour. Flick out the HRP-antibody mixture. Wash 7-8 times with TBST, each time on shaker for 10 min. Later washes try to overflow the wells so that no residual HRP remains bound to the sides of the well. Prepare and add 75 uL/well of QuantaRed Enhance Chemifluorescent HRP Substrate solution. Immediately read fluorescence on BMG ClarioStar (ex: 570/em 585), and repeat the read in 5 minutes and 15 minutes.
(ELISA stands for enzyme-linked immunosorbent assay.)

The values that follow come from patent US20250136578A1 (Kolm Therapeutics Inc., priority 2023, published 2025).

pEC50: −log10 of the molar value.

Sequence of AR / CBP ternary complex (P10275 whole entry): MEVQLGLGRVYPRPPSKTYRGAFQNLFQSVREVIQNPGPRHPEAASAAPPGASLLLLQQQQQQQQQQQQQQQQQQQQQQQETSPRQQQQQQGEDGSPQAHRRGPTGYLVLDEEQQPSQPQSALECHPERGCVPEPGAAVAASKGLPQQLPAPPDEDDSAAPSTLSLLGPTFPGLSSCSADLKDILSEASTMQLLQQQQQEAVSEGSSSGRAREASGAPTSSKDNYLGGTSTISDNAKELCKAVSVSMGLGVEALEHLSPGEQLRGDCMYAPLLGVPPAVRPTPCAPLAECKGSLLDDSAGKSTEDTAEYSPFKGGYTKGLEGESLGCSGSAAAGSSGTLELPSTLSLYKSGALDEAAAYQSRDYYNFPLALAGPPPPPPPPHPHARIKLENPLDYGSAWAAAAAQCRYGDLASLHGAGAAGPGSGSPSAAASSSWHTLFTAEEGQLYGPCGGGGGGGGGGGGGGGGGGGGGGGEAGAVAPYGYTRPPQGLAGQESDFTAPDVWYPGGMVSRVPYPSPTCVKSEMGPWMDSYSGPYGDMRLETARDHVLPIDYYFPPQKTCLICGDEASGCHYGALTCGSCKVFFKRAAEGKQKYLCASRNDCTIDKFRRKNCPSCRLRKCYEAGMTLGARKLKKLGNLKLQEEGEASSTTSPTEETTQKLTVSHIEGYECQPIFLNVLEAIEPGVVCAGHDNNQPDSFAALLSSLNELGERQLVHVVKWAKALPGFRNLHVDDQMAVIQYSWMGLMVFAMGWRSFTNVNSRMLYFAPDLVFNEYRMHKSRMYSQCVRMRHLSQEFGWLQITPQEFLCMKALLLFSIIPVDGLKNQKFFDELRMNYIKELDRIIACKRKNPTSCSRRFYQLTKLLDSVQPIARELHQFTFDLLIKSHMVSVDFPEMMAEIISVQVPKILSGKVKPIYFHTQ
Sequence of AR / CBP ternary complex (Q92793 2-2442): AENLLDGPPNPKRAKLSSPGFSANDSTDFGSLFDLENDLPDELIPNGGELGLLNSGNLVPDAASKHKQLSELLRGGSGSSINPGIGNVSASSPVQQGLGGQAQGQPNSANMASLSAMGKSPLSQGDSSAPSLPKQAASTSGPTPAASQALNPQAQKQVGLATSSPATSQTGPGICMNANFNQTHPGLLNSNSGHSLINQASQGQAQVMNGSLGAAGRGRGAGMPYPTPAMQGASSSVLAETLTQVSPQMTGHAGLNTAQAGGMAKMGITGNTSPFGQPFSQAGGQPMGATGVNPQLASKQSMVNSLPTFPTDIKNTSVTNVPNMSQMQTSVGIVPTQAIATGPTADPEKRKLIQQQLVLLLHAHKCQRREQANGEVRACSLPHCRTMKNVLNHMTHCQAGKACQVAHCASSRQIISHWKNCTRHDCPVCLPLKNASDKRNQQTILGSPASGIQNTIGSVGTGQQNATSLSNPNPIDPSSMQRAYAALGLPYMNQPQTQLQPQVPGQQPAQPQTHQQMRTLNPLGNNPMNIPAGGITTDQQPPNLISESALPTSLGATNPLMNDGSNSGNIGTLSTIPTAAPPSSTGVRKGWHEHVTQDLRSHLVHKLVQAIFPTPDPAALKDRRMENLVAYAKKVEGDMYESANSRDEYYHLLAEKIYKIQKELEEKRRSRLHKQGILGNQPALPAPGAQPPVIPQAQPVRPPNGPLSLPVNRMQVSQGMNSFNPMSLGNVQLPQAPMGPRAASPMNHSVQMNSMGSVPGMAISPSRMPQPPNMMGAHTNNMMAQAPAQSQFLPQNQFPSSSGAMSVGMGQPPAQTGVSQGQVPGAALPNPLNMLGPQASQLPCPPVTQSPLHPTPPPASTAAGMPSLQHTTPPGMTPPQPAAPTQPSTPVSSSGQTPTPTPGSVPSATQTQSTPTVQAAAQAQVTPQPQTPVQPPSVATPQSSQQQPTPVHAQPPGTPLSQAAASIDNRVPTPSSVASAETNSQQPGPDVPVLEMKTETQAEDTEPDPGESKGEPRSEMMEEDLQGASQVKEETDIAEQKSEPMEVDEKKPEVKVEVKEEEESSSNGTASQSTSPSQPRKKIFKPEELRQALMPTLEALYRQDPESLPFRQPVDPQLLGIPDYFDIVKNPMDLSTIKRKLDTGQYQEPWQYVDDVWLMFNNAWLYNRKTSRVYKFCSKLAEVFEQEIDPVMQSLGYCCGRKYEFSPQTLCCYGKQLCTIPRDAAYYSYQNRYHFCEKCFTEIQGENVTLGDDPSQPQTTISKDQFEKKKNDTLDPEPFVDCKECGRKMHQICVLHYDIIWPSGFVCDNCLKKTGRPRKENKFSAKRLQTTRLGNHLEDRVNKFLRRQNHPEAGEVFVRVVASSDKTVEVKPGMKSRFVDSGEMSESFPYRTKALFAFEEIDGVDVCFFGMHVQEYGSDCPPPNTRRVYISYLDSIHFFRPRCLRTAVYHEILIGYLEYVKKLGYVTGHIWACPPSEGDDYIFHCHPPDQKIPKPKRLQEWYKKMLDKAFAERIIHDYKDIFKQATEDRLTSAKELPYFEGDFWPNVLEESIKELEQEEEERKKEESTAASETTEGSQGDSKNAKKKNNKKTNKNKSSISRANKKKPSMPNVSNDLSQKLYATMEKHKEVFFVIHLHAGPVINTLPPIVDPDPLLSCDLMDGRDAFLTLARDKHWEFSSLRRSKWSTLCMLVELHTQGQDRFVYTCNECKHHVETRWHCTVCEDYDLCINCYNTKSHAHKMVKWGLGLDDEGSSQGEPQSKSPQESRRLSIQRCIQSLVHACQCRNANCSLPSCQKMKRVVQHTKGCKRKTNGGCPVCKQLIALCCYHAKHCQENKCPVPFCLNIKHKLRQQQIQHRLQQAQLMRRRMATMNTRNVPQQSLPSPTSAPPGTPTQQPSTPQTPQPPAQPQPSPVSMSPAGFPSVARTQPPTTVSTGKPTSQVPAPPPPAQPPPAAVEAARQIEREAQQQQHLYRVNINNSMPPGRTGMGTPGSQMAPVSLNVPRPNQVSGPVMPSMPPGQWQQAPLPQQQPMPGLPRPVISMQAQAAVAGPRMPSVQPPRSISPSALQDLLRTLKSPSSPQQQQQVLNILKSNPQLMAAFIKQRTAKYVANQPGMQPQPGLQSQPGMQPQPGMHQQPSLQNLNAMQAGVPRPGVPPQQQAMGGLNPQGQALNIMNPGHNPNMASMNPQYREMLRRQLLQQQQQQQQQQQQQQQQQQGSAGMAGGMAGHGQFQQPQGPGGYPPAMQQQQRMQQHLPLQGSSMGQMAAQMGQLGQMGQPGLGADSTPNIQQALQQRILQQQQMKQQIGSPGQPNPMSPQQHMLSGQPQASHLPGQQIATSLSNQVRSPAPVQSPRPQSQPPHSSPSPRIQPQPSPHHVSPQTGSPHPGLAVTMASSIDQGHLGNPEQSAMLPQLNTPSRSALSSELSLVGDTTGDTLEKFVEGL

Take `CC(=O)N1CCc2c(c(N3CCCc4cc(-c5cnn(C)c5)c(C(F)F)cc43)nn2C2CCN(C(=O)C3CCN(c4nnc(C(=O)N[C@H]5CC[C@H](Oc6ccc(C#N)c(Cl)c6)CC5)s4)CC3)CC2)C1` [Compound 226, 5-[4-[4-[5-acetyl-3-[7-(difluoromethyl)-6-(1-methylpyrazol-4-yl)-3,4-dihydro-2H-quinolin-1-yl]-6,7-dihydro-4H-pyrazolo[4,3-c]pyridin-1-yl]piperidine-1-carbonyl]-1-piperidyl]-N-[4-(3-chloro-4-cyano-phenoxy)cyclohexyl]-1,3,4-thiadiazole-2-carboxamide]: the pEC50 was greater than 9.00.

With `CC(=O)N1CCc2c(c(N3CCCc4cc(-c5cnn(C)c5)ccc43)nn2C2CCN(CC3CCN(c4ncc(C(=O)N[C@H]5CC[C@H](Oc6ccc(C#N)c(Cl)c6)CC5)cn4)CC3)CC2)C1` [Compound 11, 2-[4-[[4-[5-acetyl-3-[6-(1-methylpyrazol-4-yl)-3,4-dihydro-2H-quinolin-1-yl]-6,7-dihydro-4H-pyrazolo[4,3-c]pyridin-1-yl]-1-piperidyl]methyl]-1-piperidyl]-N-[4-(3-chloro-4-cyano-phenoxy)cyclohexyl]pyrimidine-5-carboxamide], the pEC50 is greater than 9.00. The value for `CC(=O)N1CCc2c(c(N3CCCc4cc(-c5cnn(C)c5)c(C(F)F)cc43)nn2[C@H]2CC[C@]3(CCN(c4ccc(C(=O)N[C@H]5CC[C@H](Oc6ccc(C#N)c(Cl)c6)CC5)nn4)C3)CC2)C1` [Compound 264, 6-[8-[5-acetyl-3-[7-(difluoromethyl)-6-(1-methylpyrazol-4-yl)-3,4-dihydro-2H-quinolin-1-yl]-6,7-dihydro-4H-pyrazolo[4,3-c]pyridin-1-yl]-2-azaspiro[4.5]decan-2-yl]-N-[4-(3-chloro-4-cyano-phenoxy)cyclohexyl]pyridazine-3-carboxamide] was less than 7.00; that for `CC(=O)N1CCc2c(c(N3CCCc4cc(C#N)c(C)cc43)nn2C2CCN(C[C@H]3[C@H](C)CN(c4ccc(C(=O)N[C@H]5CC[C@H](Oc6ccc(C#N)c(Cl)c6)CC5)nn4)C[C@@H]3C)CC2)C1` [Compound 285] was greater than 9.00; that for `CC(=O)N1CCc2c(c(N3CCCc4cc(-c5ccn(C)n5)c(C(F)F)cc43)nn2C2CCC3(CC2)CC(Oc2ccc(C(=O)N[C@H]4CC[C@H](Oc5ccc(C#N)c(Cl)c5)CC4)nn2)C3)C1` (stereo partly drawn) [Compound 275] was greater than 9.00.

For the compound `CC(=O)N1CCc2c(c(-c3cccc4cc(-c5cnn(CCC6CCN(c7ccc(C(=O)N[C@H]8CC[C@H](Oc9ccc(C#N)c(Cl)c9)CC8)nn7)CC6)c5)ncc34)nn2C2CCOCC2)C1` [Compound 24, 6-[4-[2-[4-[8-(5-acetyl-1-tetrahydropyran-4-yl-6,7-dihydro-4H-pyrazolo[4,3-c]pyridin-3-yl)-3-isoquinolyl]pyrazol-1-yl]ethyl]-1-piperidyl]-N-[4-(3-chloro-4-cyano-phenoxy)cyclohexyl]pyridazine-3-carboxamide], the pEC50 is greater than 9.00. For `CC(=O)N1CCc2c(c(N3CCCc4cc(-c5cnn(C)c5)c(C)cc43)nn2C2CCN(C3CCC4(CC3)CN(c3ccc(C(=O)N[C@H]5CC[C@H](Oc6ccc(C#N)c(C(F)(F)F)c6)CC5)nn3)C4)CC2)C1` [Compound 297], the pEC50 was less than 7.00. As for `CC(=O)N1CCc2c(c(N3CCCc4cc(-c5cnn(C)c5)c(C)cc43)nn2C2CCN(C3CCC4(CC3)CN(c3ccc(C(=O)N[C@H]5CC[C@H](Oc6ccc(C#N)c(Cl)c6)CC5)nn3)C4)CC2)C1` [Compound 295], the pEC50 was greater than 9.00. Consider `CC(=O)N1CCc2c(c(N3CCCc4cc(-c5cnn(C)c5)c(C(F)F)cc43)nn2C2CCc3c(cnn3C3CCN(c4ccc(C(=O)N[C@H]5CC[C@H](Oc6ccc(C#N)c(Cl)c6)CC5)nn4)CC3)C2)C1` (stereo partly drawn) [Compound 178, 6-[4-[5-[5-acetyl-3-[7-(difluoromethyl)-6-(1-methylpyrazol-4-yl)-3,4-dihydro-2H-quinolin-1-yl]-6,7-dihydro-4H-pyrazolo[4,3-c]pyridin-1-yl]-4,5,6,7-tetrahydroindazol-1-yl]-1-piperidyl]-N-[4-(3-chloro-4-cyano-phenoxy)cyclohexyl]pyridazine-3-carboxamide], for which the pEC50 is greater than 9.00. With `CC(=O)N1CCc2c(c(-c3cccc4cc(-c5cnn(C)c5)ncc34)nn2C2CCN(CC3CCN(c4ncc(C(=O)N[C@H]5CC[C@H](Oc6ccc(C#N)c(Cl)c6)CC5)cn4)CC3)CC2)C1` [Compound 6], the pEC50 is greater than 9.00. Regarding `CC(=O)N1CCc2c(c(N3CCCc4cc(-c5cnn(C)c5)c(C)cc43)nn2C2CCN(CC3CCN(c4ccc(C(=O)N[C@H]5CC[C@H](Oc6ccc(C#N)c(C(F)(F)F)c6)CC5)nn4)CC3(C)C)CC2)C1` (stereo partly drawn) [Compound 294], the pEC50 is greater than 9.00.

In the case of `CC(=O)N1CCc2c(c(N3CCCc4cc(-c5cnn(C)c5)c(C(F)F)cc43)nn2[C@H]2CCC3(CC2)C[C@H](Oc2ccc(C(=O)N[C@H]4CC[C@H](Oc5ccc(C#N)c(Cl)c5)CC4)nn2)C3)C1` (mixture of isomers) [Compound 235, 6-((7-(5-acetyl-3-(7-(difluoromethyl)-6-(1-methyl-1H-pyrazol-4-yl)-3,4-dihydroquinolin-1(2H)-yl)-4,5,6,7-tetrahydro-1H-pyrazolo[4,3-c]pyridin-1-yl)spiro[3.5]nonan-2-yl)oxy)-N-((1SR,4SR)-4-(3-chloro-4-cyanophenoxy)cyclohexyl)pyridazine-3-carboxamide], the pEC50 is greater than 9.00. Regarding `COc1cc(O[C@H]2CC[C@H](NC(=O)c3ccc(N4CC5(CCC(N6CCC(n7nc(N8CCCc9cc(-c%10cnn(C)c%10)c(C)cc98)c8c7CCN(C(C)=O)C8)CC6)CC5)C4)nn3)CC2)ccc1C#N` [Compound 296, 6-[7-[4-[5-acetyl-3-[7-methyl-6-(1-methylpyrazol-4-yl)-3,4-dihydro-2H-quinolin-1-yl]-6,7-dihydro-4H-pyrazolo[4,3-c]pyridin-1-yl]-1-piperidyl]-2-azaspiro [3.5]nonan-2-yl]-N-[4-(4-cyano-3-methoxy-phenoxy)cyclohexyl] pyridazine-3-carboxamide], the pEC50 is greater than 9.00.

With `CC(=O)N1CCc2c(c(N3CCCc4cc(-c5cnn(C)c5)c(C(F)F)cc43)nn2[C@H]2CC[C@]3(CCCN(c4ccc(C(=O)N[C@H]5CC[C@H](Oc6ccc(C#N)c(Cl)c6)CC5)nn4)C3)CC2)C1` [Compound 266], the pEC50 was less than 7.00. As to `CC(=O)N1CCc2c(c(N3CCCc4cc(-c5cnn(C)c5)c(C(F)F)cc43)nn2[C@H]2CCC3(CC2)C[C@H](Oc2ccc(C(=O)N[C@H]4CC[C@H](Oc5ccc(C#N)c(Cl)c5)CC4)nn2)C3)C1` (mixture of isomers) [Compound 301, 6-((7-(5-acetyl-3-(7-(difluoromethyl)-6-(1-methyl-1H-pyrazol-4-yl)-3,4-dihydroquinolin-1(2H)-yl)-4,5,6,7-tetrahydro-1H-pyrazolo[4,3-c]pyridin-1-yl)spiro[3.5]nonan-2-yl)oxy)-N-((1SR,4SR)-4-(3-chloro-4-cyanophenoxy)cyclohexyl)pyridazine-3-carboxamide], the pEC50 is greater than 9.00. With `CC(=O)N1CCc2c(c(N3CCCc4cc(-c5cnn(C)c5)c(C(F)F)cc43)nn2C2CCN(CC3C(C)CN(c4ccc(C(=O)N[C@H]5CC[C@H](Oc6ccc(C#N)c(C(F)(F)F)c6)CC5)nn4)CC3C)CC2)C1` (stereo partly drawn) [Compound 290, 6-[4-[[4-[5-acetyl-3-[7-(difluoromethyl)-6-(1-methylpyrazol-4-yl)-3,4-dihydro-2H-quinolin-1-yl]-6,7-dihydro-4H-pyrazolo[4,3-c]pyridin-1-yl]-1-piperidyl]methyl]-3,5-dimethyl-1-piperidyl]-N-[4-[4-cyano-3-(trifluoromethyl)phenoxy]cyclohexyl]pyridazine-3-carboxamide], the pEC50 is greater than 9.00. For `CC(=O)N1CCc2c(c(-c3cccc4cc(-c5cnn(CCN6CCN(c7ccc(C(=O)N[C@H]8CC[C@H](Oc9ccc(C#N)c(Cl)c9)CC8)nn7)CC6)c5)ncc34)nn2C2CCOCC2)C1` [Compound 29, 6-[4-[2-[4-[8-(5-acetyl-1-tetrahydropyran-4-yl-6,7-dihydro-4H-pyrazolo[4,3-c]pyridin-3-yl)-3-isoquinolyl]pyrazol-1-yl]ethyl]piperazin-1-yl]-N-[4-(3-chloro-4-cyano-phenoxy)cyclohexyl]pyridazine-3-carboxamide], the pEC50 is greater than 9.00. `CC(=O)N1CCc2c(c(N3CCCc4cc(-c5ccc(N6CCC(N7CCN(c8ccc(C(=O)N[C@H]9CC[C@H](Oc%10ccc(C#N)c(Cl)c%10)CC9)nn8)CC7)CC6)nc5)c(C(F)F)cc43)nn2C2CCOCC2)C1` [Compound 215]: the pEC50 is greater than 9.00.
